Values after ≈ are worked out from the molar mass of the structure shown.
System: wheat crown rot
Test: indoor toxicity test (growth rate method)
Assay type: cell-based
Details: toxicity to wheat crown rot
Description: The method of combining indoor toxicity test and field experiment is adopted.
First of all, co-toxicity coefficients of the complex pesticide of different proportions to wheat crown rot are obtained through indoor toxicity test (growth rate method); and then, the control effect is determined through field efficacy test, and the formula proportion and optimal application amount of the complex pesticide are determined.

Work on `C=CCOC(Cn1ccnc1)c1ccc(Cl)cc1Cl` (centres unmarked) [Imazalil (B), Imazalil] yielded an EC50 of 0.175 µg/mL (≈ 0.589 µM).

Work on `OC(Cc1ccccc1Cl)(Cn1nc[nH]c1=S)C1(Cl)CC1` (centres unmarked) [Prothioconazole (A), Prothioconazole] yielded an EC50 of 1.37 µg/mL (≈ 3.98 µM).

Source: patent US20240008491A1, “PESTICIDE COMPOSITION FOR C[…] CROWN ROT AND APPLICATION” (priority 2022, published 2024)
